Data as given in patent publication US10035800B2 (AbbVie Inc., priority 2013, dated 2018).
Read-outs that look alike come from different tables or passages of the source.

Legend:
[1] = test system: IL-6 (Interleukin-6) production; test: LPS (lipopolysaccharide) induced IL-6 production mouse assay; type: in vivo, mice; conditions: oral administration 1 h before LPS 2.5 mg/kg ip, serum 2 h after LPS, p < 0.05 vs vehicle
Description: LPS (Lipopolysaccharide) Induced IL-6 Production Mouse Assay
Compounds of the Examples listed in Table 2 were assayed for their ability to inhibit LPS (lipopolysaccharide) induced IL-6 (Interleukin-6) production in mice. Fox Chase SCID® female mice (Charles Rivers Labs, 5 per group) or CD1 female mice (5 per group) received an intraperitoneal challenge of lipopolysaccharide (2.5 mg/kg, L2630 E. coli 0111:B4) one hour after oral administration of compounds. Mice were euthanized 2 hours after lipopolysaccharide injection, blood was removed by cardiac puncture, and then the serum harvested from the blood samples was frozen at −80° C. On the day of the assay the serum samples were brought to room temperature and then diluted 1:20 in phosphate-buffered saline containing 2% bovine serum albumin. Interleukin-6 measurements were performed using a cytokine assay from Meso Scale Discovery (Gaithersburg, Md.) for mouse serum analysis according to the manufacturer's protocol and read on a SECTOR Imager 6000 (Meso Scale Discovery, Gaithersburg, Md.) instrument. Statistical analysis was performed using Prism software (version 5.0) incorporating Dunnett's one way ANOVA. The IL-6 mean and standard deviation of the group of vehicle treated animals were compared with the IL-6 mean and standard deviation of the group treated with drug. A p value <0.05 means that there is less than a 5% probability that the mean values in the two groups are equal.

BRD4 (BDII_E352-M457) = molecular target: T1, BRD4 (BDII_E352-M457) (Homo sapiens, UniProt O60885); test: TR-FRET bromodomain binding assay, second bromodomain of BRD4; conditions: 30 nM probe
T1 construct: protocol; made in house
Outline: (§1)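 Ki values derive from IC50s using probe Kd and concentration, with IC50s fitted to normalized TR-FRET ratios (Ex 340/Em 495, 520). Compounds competed against an Alexa647-labelled BET-inhibitor (100 nM BDI, 30 nM BDII) for 8 nM His-tagged bromodomain bound by Eu-anti-His antibody, 1 h, room temperature, pH 6.0.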

BRD4 (BDI_K57-E168) = molecular target: T2, BRD4 (BDI_K57-E168) (Homo sapiens, UniProt O60885); test: TR-FRET bromodomain binding assay, first bromodomain of BRD4; conditions: 100 nM probe
T2 construct: BD1: amino acids K57-E168; made in house
Outline: as §1

[2] = test system: breast cancer cell line MX-1; test: MX-1 cell line proliferation assay; type: cell-based; conditions: MX-1 cells, 3-day proliferation assay, Cell Titer Glo, read-out: Cellular proliferation: EC50
Outline: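 EC50 comes from sigmoidal fits of Cell Titer Glo luminescence relative to DMSO controls, with assay MSR 2.1. Ten-point 3-fold dilutions (top 3 or 1 μM final) were added to MX-1 breast cancer cells after overnight adhesion. Cells were at 5000/well and proliferation ran 3 days.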

[3] = TR-FRET assay protocol B (compound 49.02 μM-15.63 nM)
[4] = TR-FRET assay protocol E (compound 9.19 μM-150 pM)
[5] = TR-FRET assay protocol G (compound 0.92 μM-15 pM)

Row | Compound | % inhibition of LPS induced IL-6 production ([1]; mouse strain SCID) [%] | Ki (BRD4 (BDII_E352-M457); [3]) [nM] | Ki (BRD4 (BDI_K57-E168); [3]) [nM] | EC50 [2] [nM] | Ki (BRD4 (BDII_E352-M457); [4]) [nM] | Ki (BRD4 (BDI_K57-E168); [4]) [nM] | Ki (BRD4 (BDII_E352-M457); [5]) [nM] | Ki (BRD4 (BDI_K57-E168); [5]) [nM] | EC50 ([2]; Homo sapiens, MX1, 72 h) [nM] | % inhibition of LPS induced IL-6 production ([1]; mouse strain CD1) [%]
1 | CCOC(=O)C1c2c[nH]c3c(=O)n(C)cc(c23)-c2cc(CS(C)(=O)=O)ccc2N1CC1CC1 (stereo not drawn) [Example 7, ethyl 4-(cyclopropylmethyl)-10-methyl-7-((methylsulfonyl)methyl)-11-oxo-3,4,10,11-tetrahydro-1H-1,4,10-triazadibenzo[cd,f]azulene-3-carboxylate] | 53 | 26.7 | 51.1 | 14.5 |  |  |  |  |  | 
2 | Cn1cc2c3c(c[nH]c3c1=O)CN(c1ccc(F)cc1)c1ccc(S(C)(=O)=O)cc1-2 [Example 8, 4-(4-fluorophenyl)-10-methyl-7-(methylsulfonyl)-3,4-dihydro-1H-1,4,10-triazadibenzo[cd,f]azulen-11(10H)-one] | 53 |  |  | 5.68 | 3.77 | 0.646 |  |  |  | 
3 | CCS(=O)(=O)Nc1cnc2c(c1)-c1cn(C)c(=O)c3[nH]cc(c13)CN2c1ccc(F)cc1F [Example 23, N-(4-(2,4-difluorophenyl)-10-methyl-11-oxo-3,4,10,11-tetrahydro-1H-1,4,5,10-tetraazadibenzo[cd,f]azulen-7-yl)ethanesulfonamide] | 54 |  |  | 7 | 0.783 | 1.7 |  |  |  | 
4 | CCCCN1Cc2c[nH]c3c(=O)n(C)cc(c23)-c2cc(CS(C)(=O)=O)ccc21 [Example 24, 4-butyl-10-methyl-7-((methylsulfonyl)methyl)-3,4-dihydro-1H-1,4,10-triazadibenzo[cd,f]azulen-11(10H)-one] | 78 |  |  | 1.07 | 0.801 | 0.963 |  |  |  | 
5 | Cn1cc2c3c(c[nH]c3c1=O)CN(CC1CCOC1)c1ccc(CS(C)(=O)=O)cc1-2 (stereo not drawn) [Example 26] | 88 |  |  | 1.03 |  |  | 0.719 | 0.701 |  | 
6 | Cn1cc2c3c(c[nH]c3c1=O)CN(C1CCC(F)(F)CC1)c1ccc(CS(C)(=O)=O)cc1-2 [Example 30, 4-(4,4-difluorocyclohexyl)-10-methyl-7-((methylsulfonyl)methyl)-3,4-dihydro-1H-1,4,10-triazadibenzo[cd,f]azulen-11(10H)-one] | 81 |  |  | 1.39 | 1.36 | 4.98 |  |  |  | 
7 | [2H]C1([2H])c2c[nH]c3c(=O)n(C)cc(c23)-c2cc(CS(C)(=O)=O)ccc2N1c1ccc(F)cc1 [Example 31, 4-(4-fluorophenyl)-(3,3-^2H2)-10-methyl-7-((methylsulfonyl)methyl)-3,4-dihydro-1H-1,4,10-triazadibenzo[cd,f]azulen-11(10H)-one] | 83 |  |  |  |  |  | 1.18 | 1.67 | 0.752 | 
8 | Cn1cc2c3c(c(C(N)=O)[nH]c3c1=O)CN(c1ccc(Cl)cc1)c1ccc(CS(C)(=O)=O)cc1-2 [Example 58, 4-(4-chlorophenyl)-10-methyl-7-((methylsulfonyl)methyl)-11-oxo-3,4,10,11-tetrahydro-1H-1,4,10-triazadibenzo[cd,f]azulene-2-carboxamide] |  |  |  | 5.38 |  |  | 0.617 | 2.02 |  | 39
9 | CCNC(=O)c1[nH]c2c(=O)n(C)cc3c2c1CN(c1ccc(Cl)cc1)c1ccc(CS(C)(=O)=O)cc1-3 [Example 59, 4-(4-chlorophenyl)-N-ethyl-10-methyl-7-((methylsulfonyl)methyl)-11-oxo-3,4,10,11-tetrahydro-1H-1,4,10-triazadibenzo[cd,f]azulene-2-carboxamide] |  |  |  | 3.8 |  |  | 0.972 | 3.1 |  | 68
10 | CN1CCN(C(=O)c2[nH]c3c(=O)n(C)cc4c3c2CN(c2ccc(Cl)cc2)c2ccc(CS(C)(=O)=O)cc2-4)CC1 [Example 60, 4-(4-chlorophenyl)-10-methyl-2-(4-methylpiperazine-1-carbonyl)-7-((methylsulfonyl)methyl)-3,4-dihydro-1H-1,4,10-triazadibenzo[cd,f]azulen-11(10H)-one] |  |  |  | 115 |  |  | 33.1 | 2.55 |  | 44
11 | CC(C)CN1Cc2c[nH]c3c(=O)n(C)cc(c23)-c2cc(CS(C)(=O)=O)ccc21 [Example 149, 4-isobutyl-10-methyl-7-((methylsulfonyl)methyl)-3,4-dihydro-1H-1,4,10-triazadibenzo[cd,f]azulen-11(10H)-one] |  |  |  | 1.93 |  |  | 0.82 | 1.78 |  | 86
12 | Cn1cc2c3c(c[nH]c3c1=O)CN(C1CCOCC1)c1ccc(CS(C)(=O)=O)cc1-2 [Example 151, 10-methyl-7-((methylsulfonyl)methyl)-4-(tetrahydro-2H-pyran-4-yl)-3,4-dihydro-1H-1,4,10-triazadibenzo[cd,f]azulen-11(10H)-one] |  |  |  | 4.26 |  |  | 2.3 | 1.14 |  | 57
13 | Cn1cc2c3c(c[nH]c3c1=O)CN(CCC1CCOCC1)c1ccc(CS(C)(=O)=O)cc1-2 [Example 191, 10-methyl-7-((methylsulfonyl)methyl)-4-(2-(tetrahydro-2H-pyran-4-yl)ethyl)-3,4-dihydro-1H-1,4,10-triazadibenzo[cd,f]azulen-11(10H)-one] |  |  |  | 10.7 |  |  | 3.38 | 1 |  | 60
14 | Cn1cc2c3c(c[nH]c3c1=O)CN(c1ccc(C#N)cc1)c1ccc(CS(C)(=O)=O)cc1-2 [Example 192, 4-(10-methyl-7-((methylsulfonyl)methyl)-11-oxo-10,11-dihydro-1H-1,4,10-triazadibenzo[cd,f]azulen-4(3H)-yl)benzonitrile] |  |  |  | 1.25 |  |  | 1.08 | 1.65 |  | 73
15 | Cn1cc2c3c(c[nH]c3c1=O)CN(c1ccc(F)cc1F)c1c-2cc(CS(C)(=O)=O)cc1C1CC1 [Example 195, 5-cyclopropyl-4-(2,4-difluorophenyl)-10-methyl-7-((methylsulfonyl)methyl)-3,4-dihydro-1H-1,4,10-triazadibenzo[cd,f]azulen-11(10H)-one] |  |  |  | 3.77 |  |  | 0.62 | 2.66 |  | 85
16 | Cn1cc2c3c(c[nH]c3c1=O)CN(c1ccc(Cl)cc1)c1ccc(CS(C)(=O)=O)cc1-2 [Example 198, 4-(4-chlorophenyl)-10-methyl-7-((methylsulfonyl)methyl)-3,4-dihydro-1H-1,4,10-triazadibenzo[cd,f]azulen-11(10H)-one] |  |  |  | 0.69 |  |  | 0.63 | 1.59 |  | 86
17 | CCNC(=O)c1[nH]c2c(=O)n(C)cc3c2c1CN(c1ccc(F)cc1F)c1ccc(CS(C)(=O)=O)cc1-3 [Example 202, 4-(2,4-difluorophenyl)-N-ethyl-10-methyl-7-((methylsulfonyl)methyl)-11-oxo-3,4,10,11-tetrahydro-1H-1,4,10-triazadibenzo[cd,f]azulene-2-carboxamide] |  |  |  | 4.3 |  |  | 0.35 | 0.79 |  | 47
18 | N-ethyl-4-(4-fluorophenyl)-10-methyl-7-((methylsulfonyl)methyl)-11-oxo-3,4,10,11-tetrahydro-1H-1,4,10-triazadibenzo[cd,f]azulene-2-carboxamide [Example 194] |  |  |  | 1.47 |  |  | 0.38 | 1.33 |  | 53
